Data published in US11957683B2, “Bicyclic compounds” (Aligos Therapeutics, Inc., priority 2021, dated 2024).

Columns and labels:
HBV = test: HBV-DNA antiviral assay using HepG2.117 cells; assay type: cell-based, HBV genotype D; conditions: Hepatitis B virus, 72 h; HBV DNA inhibition, intracellular HBV DNA by qPCR, HepG2.117 cells, 3 days incubation; read-out: EC50
Protocol: (§1) The following assay procedure describes the HBV antiviral assay, using HepG2.117 cells, which carry a stably integrated genotype D HBV genome under the control of a Tet-off promoter, and intracellular HBV DNA quantification as endpoint. Cell viability is assessed in parallel by measuring the intracellular ATP content using CellTiter-Glo 2.0 (Promega).
On day 0, HepG2.117 cells (which are maintained in routine cell culture with doxycycline present in the medium at a final concentration of 1 μg/mL) are seeded in 96-well plates (white with clear bottom) at a density of 2.0×10^4 cells/well (0.1 mL/well) in medium without doxycycline to induce pgRNA transcription and subsequent formation of HBV particles. The cells are incubated at 37° C. and 5% CO2.
(§2) On day 1, medium is removed from each well, the test articles are diluted in culture medium without doxcycyline and 100 μL was added to cell culture wells (9 concentrations, 4-fold dilution). For each plate, 6 untreated (merely DMSO) wells are included. The final concentration of DMSO in the culture medium is 2%. Each plate is prepared in duplicate (one for HBV DNA extraction, one for CellTiter-Glo 2.0 measurement). The cells are incubated at 37° C. and 5% CO2 for 3 days.
(§3) On day 4, cell viability is assessed using CellTiter-Glo 2.0 and cell lysates are prepared for HBV DNA extraction and subsequent quantification by qPCR.
Medium is removed from each well and 100 μL of 0.33% NP-40 in H2O was added to each well. Plates are sealed, incubated at 4° C. for 5 mins, vortexed extensively and centrifuged briefly. Next, 35 μL of lysate is added to 65 μL QuickExtract DNA Extraction Solution (Epicentre) in a PCR plate for each well. PCR plate is incubated at 65° C. for 6 mins, 98° C. for 2 mins and finally cooled to 4° C. HBV DNA is then quantified by qPCR with HBV-specific primers and probes as specified in Table 2 using the Bio-Rad SSOAdvanced Universal Probes Supermix on a CFX96 machine (Bio-Rad). The PCR cycle program consisted of 95° C. for 3 mins, followed by 40 cycles at 95° C. for 10 sec and 60° C. for 30 sec.
A DNA standard is prepared by dilution of an IDT gBlock corresponding to the amplicon with concentrations ranging from 10^2 to 10^8 copies/input (i.e., per 4 μL) and used to generate a standard curve by plotting Cq values vs. HBV DNA standard concentration. The quantity of HBV DNA in each sample is determined by interpolating from the standard curve.
(§4) Cell viability is calculated as follows: % Cell viability=(luminescence value of test sample)/(average luminescence value of 2% DMSO control)×100%. HBV DNA inhibition was calculated as follows: 100−(HBV DNA copy number of test sample)/(average HBV DNA copy number of 2% DMSO control)×100%. No normalization to entecavir is required due to the excellent dynamic window of this assay. The CC50, EC50 and EC90 values were determined by dose-response curves fitted using non-linear regression.

[1] = Cell viability by CellTiter-Glo 2.0 (intracellular ATP) in HepG2.117 cells; assay type: cell-based; conditions: human, CellTiter-Glo 2.0, HepG2.117 cells, 3 days incubation
Protocol: as §1, §2, §3
Using the other plates, the cell viability is quantified by CellTiter-Glo 2.0 according to the manufacturer's manual. In brief, 100 μL of reagent solution is added to the culture plates and shaken for 2′. The plates are incubated at rt for 10 min and luminescence signal is subsequently measured on a VarioSkan Lux (ThermoFisher) plate reader.
as §4

Row | SMILES | EC50 (HBV) | CC50 at 3 days [1]
1 | CNC(=O)c1ccc(-n2c(C#CCC(C)C)nc3c(c2=O)C[C@@H](C)N(C(=O)c2ccc(Br)c(C(F)(F)F)c2)C3)cc1 [Compound 23, (R)-4-(7-(4-bromo-3-(trifluoromethyl)benzoyl)-6-methyl-2-(4-methylpent-1-yn-1-yl)-4-oxo-5,6,7,8-tetrahydropyrido[3,4-d]pyrimidin-3(4H)-yl)-N-methylbenzamide] | 50 to 500 nM | 11.7 µM
2 | C=C[C@H](C)Nc1nc2c(c(=O)n1-c1ccc(C(=O)NC)cn1)C[C@@H](C)N(C(=O)c1ccc(Br)c(C(F)(F)F)c1)C2 [Compound 24, 6-((R)-7-(4-bromo-3-(trifluoromethyl)benzoyl)-2-(((S)-but-3-en-2-yl)amino)-6-methyl-4-oxo-5,6,7,8-tetrahydropyrido[3,4-d]pyrimidin-3(4H)-yl)-N-methylnicotinamide] | < 50 nM | > 0.5 µM
3 | C=C[C@H](C)Nc1nc2c(c(=O)n1-c1ccc3ncn(C)c3c1)C[C@@H](C)N(C(=O)c1ccc(Br)c(C(F)(F)F)c1)C2 [Compound 25, (R)-7-(4-bromo-3-(trifluoromethyl)benzoyl)-2-(((S)-but-3-en-2-yl)amino)-6-methyl-3-(1-methyl-1H-benzo[d]imidazol-6-yl)-5,6,7,8-tetrahydropyrido[3,4-d]pyrimidin-4(3H)-one] | < 50 nM | 29.7 µM
4 | C=C[C@H](C)Nc1nc2c(c(=O)n1-c1cnc3c(c1)ncn3C)C[C@@H](C)N(C(=O)c1ccc(Br)c(C(F)(F)F)c1)C2 [Compound 26, (R)-7-(4-bromo-3-(trifluoromethyl)benzoyl)-2-(((S)-but-3-en-2-yl)amino)-6-methyl-3-(3-methyl-3H-imidazo[4,5-b]pyridin-6-yl)-5,6,7,8-tetrahydropyrido[3,4-d]pyrimidin-4(3H)-one] | < 50 nM | > 0.5 µM
5 | C=C[C@H](C)Nc1nc2c(c(=O)n1-c1ccc(-c3cnn(C)c3)cc1)C[C@@H](C)N(C(=O)c1ccc(Br)c(C(F)(F)F)c1)C2 [Compound 27, (R)-7-(4-bromo-3-(trifluoromethyl)benzoyl)-2-(((S)-but-3-en-2-yl)amino)-6-methyl-3-(4-(1-methyl-1H-pyrazol-4-yl)phenyl)-5,6,7,8-tetrahydropyrido[3,4-d]pyrimidin-4(3H)-one] | < 50 nM | 22.8 µM
6 | C=C[C@H](C)Nc1nc2c(c(=O)n1-c1ccc3c(c1)nc(C)n3C)C[C@@H](C)N(C(=O)c1ccc(Br)c(C(F)(F)F)c1)C2 [Compound 28, (R)-7-(4-bromo-3-(trifluoromethyl)benzoyl)-2-(((S)-but-3-en-2-yl)amino)-3-(1,2-dimethyl-1H-benzo[d]imidazol-5-yl)-6-methyl-5,6,7,8-tetrahydropyrido[3,4-d]pyrimidin-4(3H)-one] | < 50 nM | 30.5 µM
7 | C=CC(C)(C)Nc1nc2c(c(=O)n1-c1ccc3c(c1)ncn3C)C[C@@H](C)N(C(=O)c1ccc(Br)c(C(F)(F)F)c1)C2 [Compound 29, (R)-7-(4-bromo-3-(trifluoromethyl)benzoyl)-6-methyl-3-(1-methyl-1H-benzo[d]imidazol-5-yl)-2-((2-methylbut-3-en-2-yl)amino)-5,6,7,8-tetrahydropyrido[3,4-d]pyrimidin-4(3H)-one] | < 50 nM | 30.5 µM
8 | C=C[C@H](C)Nc1nc2c(c(=O)n1-c1ccc(C(=O)NC)nn1)C[C@@H](C)N(C(=O)c1ccc(Br)c(C(F)(F)F)c1)C2 [Compound 30, 6-((R)-7-(4-bromo-3-(trifluoromethyl)benzoyl)-2-(((S)-but-3-en-2-yl)amino)-6-methyl-4-oxo-5,6,7,8-tetrahydropyrido[3,4-d]pyrimidin-3(4H)-yl)-N-methylpyridazine-3-carboxamide] | < 50 nM | > 50 µM
